Consider one compound from US20240208950A1, “COMPOSITIONS AND METHODS FOR TREATMENT OF CERVICAL AND OVARIAN CANCER” (SOUTH DAKOTA BOARD OF REGENTS, priority 2021, published 2024).

Each structure is given as a SMILES string.

What all share (assay type): cell-based, human
For assay [1], the system named is SiHa cells. Kind of assay: Cell cycle analysis by flow cytometry, SiHa. The settings on record: 10 and 15 μM. Here is the method: (§1) The effect of Br-ORM on cell cycle analysis was performed by flow cytometry as has described in the art. In brief, approximately 70% confluent cervical cancer cells were treated with Br-ORM (10 and 20 μM) for 24 hours. The cells were trypsinized and washed twice with ice-cold PBS (1×). The cell pellets were resuspended in 50 μL of ice cold PBS (1×) and 450 μL of cold methanol. The cells were washed twice with ice cold PBS (1×), suspended in 500 μL PBS, and incubated with 500 μL RNase (20 μg/mL final concentration) at 37° C. for 1 hour. The cells were chilled over ice for 10 minutes and stained with propidium iodide (50 μg/mL final concentration) for 1 hour and analyzed by flow cytometry (BD Accuri C6; Becton Dickinson, Mountain View, CA, USA). Data was analyzed by using Modfit software.
(§2) To examine the effect on cell cycle distribution, cervical cancer cells were treated with Br-ORM (10 and 15 μM) and analyzed by flow cytometry (FIG. 13F(i)-(ii)).

Assay [2] deals with CaSki cells. Kind of assay: Cell proliferation assay (MTS), CaSki. The settings on record: 1-20 μM, 24 hours. Here is the method:
(§3) The effect of Br-ORM on CaSki and SiHa cells proliferation was performed using the MTS assay. Briefly, cells were seeded at a density of 5×10^3 cells per well in 96 well plate and allowed to stand overnight at 37° C. and 5% CO2 incubator. Next day, cells were treated with different concentrations of Br-ORM (1, 5, 10 and 20 μM). DMSO was used as a vehicle for the treatment of control cells. Twenty four hours post-treatment, 20 μL of MTS reagent (5 mg/mL) was added in each well and further incubated the plate for 2 hours in a CO2 incubator. Absorbance was taken after 2 hours at […] (SpectraMax M2 spectrophotometer, Molecular Devices, Sunnyvale, CA, USA). The experiment was performed in triplicates. Results were represented as percent viability with respect to the control group. […]
(§4) FIG. 13. […] Cell viability was assessed by MTS assay. […] Bar graphs indicating quantification of colony formation in CaSki (i), and SiHa (ii) cells of cervical cancer with respect to vehicle control. […] Briefly, cervical cancer cells were treated with Br-ORM (10 μM) for 24 hours and the apoptosis inducing effect of Br-ORM was analyzed by Annexin V staining. […] The equal loading of protein in each lane was determined by probing the blots with β-actin antibody (FIG. 13F). […] Br-ORM arrests cell cycle in G1/S phase as determined by flow cytometry. […]

Assay [3] relates to SiHa cells. Kind of assay: Cell proliferation assay (MTS), SiHa. Particulars: 1-20 μM, 24 hours. How it is done:
as §3, §4

The subject of another assay is β-catenin in SiHa cells. Kind of assay: Western blot of β-catenin in nuclear and cytoplasmic extracts, SiHa. Particulars: 15 μM, 24 hours. Here is the method:
(§5) In the Example shown at FIGS. 9A-9E, cells were subjected to treatment with 15 μM concentration of ORM-Br for 24 hours, nuclear extracts were prepared and western blot analysis were used to detect the protein levels of β-catenin. […] Western blots were reprobed with β-actin and Histone H3 antibodies as an internal control.
(§6) The nuclear and cytoplasmic lysates were prepared using respective buffers. The cell lysates (40 μg) were subjected to SDS-PAGE and blotted on PVDF membrane. The membranes were further blocked in 5% milk diluted in 1×TBST solution for 1 hour and incubated overnight in primary antibodies. The following day, the membranes were washed and incubated with secondary antibodies for 1 hour, washed again and developed on a UVP system using chemi-luminiscent reagents.
(§7) The EMT process in a cell is driven by growth factors or other signaling proteins such as Wnt/beta-catenin and extracellular matrix component that may stimulate cellular growth and migration. The effect of Br-ORM on β-catenin signaling was examined.
(§8) FIG. 15. Effect OF Br-ORM on β-catenin signaling and molecular docking of Br-ORM with β-catenin. Effect of Br-ORM on β-catenin distribution in cytoplasm and nucleus of CaSki and SiHa cells. […] Effect of Br-ORM on β-catenin localization in CaSki cells as determined by confocal microscopy (FIG. 15B(i)-(ii)). […]

In another assay the test system is β-catenin in CaSki cells. Kind of assay: Western blot of β-catenin in nuclear and cytoplasmic extracts, CaSki. The settings on record: 15 μM, 24 hours. Here is the method:
as §5, §6, §7, §8

Assay [4] concerns CaSki cells. The assay can be described thus: Cell cycle analysis by flow cytometry, CaSki. The settings on record: 10 and 15 μM. How it is done: as §1, §2

Take `COc1ccc2c(c1)OC(C)(C)C(c1ccc(Br)cc1)C2c1ccc(OCCN2CCCC2)cc1` (stereo not shown) [ORM-Br]: the cell cycle distribution entry is “arrested cell cycle progression of CaSki and SiHa cells at G1/S phase” in the assay on SiHa cells [1]; “arrested cell cycle progression of CaSki and SiHa cells at G1/S phase” with CaSki cells [4]. Besides, the “cell viability / growth” value is “inhibits the growth” with CaSki cells [2], “dose dependently inhibited the cell viability” in the assay with CaSki cells [2] (listed as Br-ORM), “inhibits the growth” in the assay with SiHa cells [3] and “dose dependently inhibited the cell viability” in the assay on SiHa cells [3] (listed as Br-ORM). Besides, the “nuclear β-catenin expression” value with β-catenin in SiHa cells was “decrease in expression of nuclear β-catenin”; in the assay with β-catenin in SiHa cells (listed as Br-ORM) it was “inhibited nuclear β-catenin”; in the assay on β-catenin in CaSki cells, “decrease in expression of nuclear β-catenin”; with β-catenin in CaSki cells (listed as Br-ORM) it was “inhibited nuclear β-catenin”.
